How the values were obtained:
Type in all cases: biochemical
NUAK2 (h) = biological target: T1, NUAK2 (h) (Homo sapiens, UniProt Q9H093); experiment: NUAK2 enzymatic assay (radiometric, Eurofins); conditions: for IC50: radiometric, full-length recombinant enzyme; for AUR-A (IC50, nM)/NUAK2 (IC50, nM): NUAK2 selectivity over Aurora-A, ratio of IC50s
T1 construct: This assay was done radiometrically using full-length, recombinant enzyme; purchased Eurofins
T1 sequence (Q9H093 1-628): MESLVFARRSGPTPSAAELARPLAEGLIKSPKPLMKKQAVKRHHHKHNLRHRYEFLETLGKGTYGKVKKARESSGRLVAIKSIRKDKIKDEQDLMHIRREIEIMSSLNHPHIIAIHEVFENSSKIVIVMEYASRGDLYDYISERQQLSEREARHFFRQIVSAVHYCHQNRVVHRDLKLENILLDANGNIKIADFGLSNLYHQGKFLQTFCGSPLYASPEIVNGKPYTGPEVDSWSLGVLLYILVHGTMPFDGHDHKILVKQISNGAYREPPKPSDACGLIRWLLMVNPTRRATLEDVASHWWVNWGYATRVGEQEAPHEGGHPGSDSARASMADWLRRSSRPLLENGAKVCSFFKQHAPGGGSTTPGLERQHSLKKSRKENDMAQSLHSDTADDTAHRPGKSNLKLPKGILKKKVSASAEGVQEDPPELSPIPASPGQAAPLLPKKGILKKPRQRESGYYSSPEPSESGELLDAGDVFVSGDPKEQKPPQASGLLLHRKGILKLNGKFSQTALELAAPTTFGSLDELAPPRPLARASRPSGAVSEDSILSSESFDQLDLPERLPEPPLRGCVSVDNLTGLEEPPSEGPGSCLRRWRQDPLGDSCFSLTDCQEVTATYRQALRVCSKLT
How it was run: (§1)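 Radiometric assay with full-length recombinant NUAK2 in 8 mM MOPS pH 7.0, 0.2 mM EDTA, 10 mM magnesium acetate, 300 μM peptide substrate and [33P]-ATP, 40 min at room temperature. Phosphoric acid stop, filter capture, scintillation counting. Aurora A and NUAK1 used as counter screens.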

NUAK1 = biological target: T2, NUAK1 (Homo sapiens, UniProt O60285); experiment: NUAK1 counter screen
T2 sequence (O60285 1-661): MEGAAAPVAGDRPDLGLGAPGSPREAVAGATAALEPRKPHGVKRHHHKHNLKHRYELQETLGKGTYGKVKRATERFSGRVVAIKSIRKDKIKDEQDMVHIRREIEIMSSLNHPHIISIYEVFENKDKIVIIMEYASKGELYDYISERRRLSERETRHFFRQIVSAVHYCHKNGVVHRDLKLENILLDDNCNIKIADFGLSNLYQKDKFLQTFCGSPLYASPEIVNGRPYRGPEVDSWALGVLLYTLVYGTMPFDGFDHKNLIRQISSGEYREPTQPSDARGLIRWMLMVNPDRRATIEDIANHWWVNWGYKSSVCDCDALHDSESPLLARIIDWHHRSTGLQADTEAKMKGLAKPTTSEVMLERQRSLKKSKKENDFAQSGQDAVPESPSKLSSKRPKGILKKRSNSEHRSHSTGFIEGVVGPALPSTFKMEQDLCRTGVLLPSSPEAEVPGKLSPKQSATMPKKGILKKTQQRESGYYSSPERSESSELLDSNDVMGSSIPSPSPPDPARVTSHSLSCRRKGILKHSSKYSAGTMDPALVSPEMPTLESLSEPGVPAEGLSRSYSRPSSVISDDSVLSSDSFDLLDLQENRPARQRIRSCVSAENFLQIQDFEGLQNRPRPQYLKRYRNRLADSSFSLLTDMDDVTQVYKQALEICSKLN
How it was run: as §1

Aurora A = biological target: T3, Aurora A (Homo sapiens, UniProt O14965); experiment: Aurora A counter screen; conditions: read-out: AUR-A (IC50)
T3 sequence (O14965 1-403): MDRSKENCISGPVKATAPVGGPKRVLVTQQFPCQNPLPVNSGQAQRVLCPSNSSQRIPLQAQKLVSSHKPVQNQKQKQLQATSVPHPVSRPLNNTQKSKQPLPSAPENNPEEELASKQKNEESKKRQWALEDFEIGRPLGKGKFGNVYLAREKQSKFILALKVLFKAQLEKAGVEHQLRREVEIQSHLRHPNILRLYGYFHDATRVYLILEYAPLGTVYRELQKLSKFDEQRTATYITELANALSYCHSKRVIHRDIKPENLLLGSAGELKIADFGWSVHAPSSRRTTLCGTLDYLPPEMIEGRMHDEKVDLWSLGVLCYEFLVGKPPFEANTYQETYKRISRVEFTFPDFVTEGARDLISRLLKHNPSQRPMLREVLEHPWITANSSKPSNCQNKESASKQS
How it was run: as §1

CN1C[C@H]2C[C@@H]1CN2c1ccc(Nc2ncc(Cl)c(Nc3ccsc3C(N)=O)n2)c(OC(F)F)c1 [Compound I-9, 3-((5-chloro-2-((2-(difluoromethoxy)-4-((1R,4R)-5-methyl-2,5-diazabicyclo[2.2.1]heptan-2-yl)phenyl)amino)pyrimidin-4-yl)amino)thiophene-2-carboxamide]
IC50 (NUAK2 (h)): 0.1 to 10 nM | IC50 (NUAK1): 11 to 100 nM | IC50 (Aurora A): 101 to 1000 nM

CCN1CCN(c2ccc(Nc3ncc(Cl)c(Nc4cscc4C(N)=O)n3)c(OC(F)F)c2)CC1 [Compound I-14, 4-((5-chloro-2-((2-(difluoromethoxy)-4-(4-ethylpiperazin-1-yl)phenyl)amino)pyrimidin-4-yl)amino)thiophene-3-carboxamide]
IC50 (NUAK2 (h)): 0.1 to 10 nM | IC50 (NUAK1): 0.1 to 10 nM | IC50 (Aurora A): 101 to 1000 nM

CC(C)Oc1cc(N2CCN(C)CC2)ccc1Nc1ncc(Cl)c(N[C@@H]2CCCC[C@@H]2C(N)=O)n1 [Compound C-6, reference compound]
AUR-A (IC50, nM)/NUAK2 (IC50, nM) (NUAK2 (h)): 14 | IC50 (NUAK2 (h)): 101 to 1000 nM | IC50 (NUAK1): > 1000 nM | IC50 (Aurora A): > 1000 nM

C[C@H]1CN(C2CCN(c3ccc(Nc4ncc(C(F)(F)F)c(Nc5ccsc5C(N)=O)n4)c(OC(F)F)c3)CC2)CCN1C [Compound I-68, (S)-3-((2-((2-(difluoromethoxy)-4-(4-(3,4-dimethylpiperazin-1-yl)piperidin-1-yl)phenyl)amino)-5-(trifluoromethyl)pyrimidin-4-yl)amino)thiophene-2-carboxamide]
IC50 (NUAK2 (h)): 11 to 100 nM | IC50 (NUAK1): 11 to 100 nM | IC50 (Aurora A): 101 to 1000 nM

NC(=O)c1sccc1Nc1nc(Nc2ccc(N3CCC(N4CCN5CCC[C@@H]5C4)CC3)cc2OC(F)F)ncc1Cl [Compound I-71, (R)-3-((5-chloro-2-((2-(difluoromethoxy)-4-(4-(hexahydropyrrolo[1,2-a]pyrazin-2(1H)-yl)piperidin-1-yl)phenyl)amino)pyrimidin-4-yl)amino)thiophene-2-carboxamide]
IC50 (NUAK2 (h)): 11 to 100 nM | IC50 (NUAK1): 11 to 100 nM | IC50 (Aurora A): 11 to 100 nM

CCN1CCN(C2CCN(c3ccc(Nc4ncc(C(F)(F)F)c(Nc5ccsc5C(N)=O)n4)c(OC(F)F)c3)CC2)CC1 [Compound I-77, 3-((2-((2-(difluoromethoxy)-4-(4-(4-ethylpiperazin-1-yl)piperidin-1-yl)phenyl)amino)-5-(trifluoromethyl)pyrimidin-4-yl)amino)thiophene-2-carboxamide]
IC50 (NUAK2 (h)): 0.1 to 10 nM | IC50 (NUAK1): 0.1 to 10 nM | IC50 (Aurora A): 101 to 1000 nM

NC(=O)c1ccsc1Nc1nc(Nc2ccc(N3CCNCC3)cc2OC(F)F)ncc1Cl [Compound I-2, 2-((5-chloro-2-((2-(difluoromethoxy)-4-(piperazin-1-yl)phenyl)amino)pyrimidin-4-yl)amino)thiophene-3-carboxamide]
IC50 (NUAK2 (h)): 11 to 100 nM | IC50 (NUAK1): 11 to 100 nM | IC50 (Aurora A): > 1000 nM

NC(=O)c1sccc1Nc1nc(Nc2ccc(N3CCN4CCC[C@@H]4C3)cc2OC(F)F)ncc1Cl [Compound I-44, (R)-3-((5-chloro-2-((2-(difluoromethoxy)-4-(hexahydropyrrolo[1,2-a]pyrazin-2(1H)-yl)phenyl)amino)pyrimidin-4-yl)amino)thiophene-2-carboxamide]
AUR-A (IC50, nM)/NUAK2 (IC50, nM) (NUAK2 (h)): 137 | IC50 (NUAK2 (h)): 0.1 to 10 nM | IC50 (NUAK1): 11 to 100 nM | IC50 (Aurora A): 101 to 1000 nM

CN(C)C1CCN(c2ccc(Nc3ncc(Cl)c(Nc4ccsc4C(N)=O)n3)c(OC(F)F)c2)CC1 [Compound I-47, 3-((5-chloro-2-((2-(difluoromethoxy)-4-(4-(dimethylamino)piperidin-1-yl)phenyl)amino)pyrimidin-4-yl)amino)thiophene-2-carboxamide]
IC50 (NUAK2 (h)): 11 to 100 nM | IC50 (NUAK1): 0.1 to 10 nM | IC50 (Aurora A): 11 to 100 nM

COc1c(Nc2ncc(Cl)c(Nc3ccsc3C(N)=O)n2)ccc(N2CCN(C)CC2)c1F [Compound C-2, reference compound]
AUR-A (IC50, nM)/NUAK2 (IC50, nM) (NUAK2 (h)): 71 | IC50 (NUAK2 (h)): 0.1 to 10 nM | IC50 (NUAK1): 0.1 to 10 nM | IC50 (Aurora A): 101 to 1000 nM

CC(C)N1C[C@@H]2C[C@H]1CN2c1ccc(Nc2ncc(Cl)c(Nc3sccc3C(N)=O)n2)c(OC(F)F)c1 (stereo in doubt) [Compound I-36, 2-((5-chloro-2-((2-(difluoromethoxy)-4-((1S,4S)-5-isopropyl-2,5-diazabicyclo[2.2.1]heptan-2-yl)phenyl)amino)pyrimidin-4-yl)amino)thiophene-3-carboxamide]
IC50 (NUAK2 (h)): 11 to 100 nM | IC50 (NUAK1): 11 to 100 nM | IC50 (Aurora A): 101 to 1000 nM

NC(=O)c1sccc1Nc1nc(Nc2ccc(N3CCN(CC(F)(F)F)CC3)cc2OC(F)F)ncc1Cl [Compound I-33, 3-((5-chloro-2-((2-(difluoromethoxy)-4-(4-(2,2,2-trifluoroethyl)piperazin-1-yl)phenyl)amino)pyrimidin-4-yl)amino)thiophene-2-carboxamide]
IC50 (NUAK2 (h)): 101 to 1000 nM | IC50 (NUAK1): 101 to 1000 nM | IC50 (Aurora A): 101 to 1000 nM

Cc1cnc(Nc2ccc(N3CCN(C(C)C)CC3)cc2OC(F)F)nc1Nc1ccsc1C(N)=O [Compound I-17, 3-((2-((2-(difluoromethoxy)-4-(4-isopropylpiperazin-1-yl)phenyl)amino)-5-methylpyrimidin-4-yl)amino)thiophene-2-carboxamide]
IC50 (NUAK2 (h)): 11 to 100 nM | IC50 (NUAK1): 11 to 100 nM | IC50 (Aurora A): 101 to 1000 nM

NC(=O)c1sccc1Nc1nc(Nc2ccc(N3CCC(N4CCOCC4)CC3)cc2OC(F)F)ncc1Cl [Compound I-43, 3-((5-chloro-2-((2-(difluoromethoxy)-4-(4-morpholinopiperidin-1-yl)phenyl)amino)pyrimidin-4-yl)amino)thiophene-2-carboxamide]
IC50 (NUAK2 (h)): 0.1 to 10 nM | IC50 (NUAK1): 11 to 100 nM | IC50 (Aurora A): 101 to 1000 nM

CN1CCC2(CC1)CCN(c1ccc(Nc3ncc(Cl)c(Nc4ccsc4C(N)=O)n3)c(OC(F)F)c1)C2 [Compound I-53, 3-((5-chloro-2-((2-(difluoromethoxy)-4-(8-methyl-2,8-diazaspiro[4.5]decan-2-yl)phenyl)amino)pyrimidin-4-yl)amino)thiophene-2-carboxamide]
IC50 (NUAK2 (h)): 11 to 100 nM | IC50 (NUAK1): 11 to 100 nM | IC50 (Aurora A): 101 to 1000 nM

CN1CCN(c2ccc(Nc3ncc(F)c(Nc4ccsc4C(N)=O)n3)c(OC(F)F)c2)CC1 [Compound I-37, 3-((2-((2-(difluoromethoxy)-4-(4-methylpiperazin-1-yl)phenyl)amino)-5-fluoropyrimidin-4-yl)amino)thiophene-2-carboxamide]
IC50 (NUAK2 (h)): 11 to 100 nM | IC50 (NUAK1): 11 to 100 nM | IC50 (Aurora A): 101 to 1000 nM

NC(=O)c1ccsc1Nc1nc(Nc2ccc(N3CCCC3)cc2OC(F)F)ncc1Cl [Compound I-31, 2-((5-chloro-2-((2-(difluoromethoxy)-4-(pyrrolidin-1-yl)phenyl)amino)pyrimidin-4-yl)amino)thiophene-3-carboxamide]
IC50 (NUAK2 (h)): > 1000 nM | IC50 (NUAK1): 101 to 1000 nM | IC50 (Aurora A): > 1000 nM

CN1CCN(c2ccc(Nc3ncc(Cl)c(Nc4ccsc4C(N)=O)n3)c(OC(F)(F)F)c2)CC1 [Compound I-10, 3-((5-chloro-2-((4-(4-methylpiperazin-1-yl)-2-(trifluoromethoxy)phenyl)amino)pyrimidin-4-yl)amino)thiophene-2-carboxamide]
IC50 (NUAK2 (h)): 0.1 to 10 nM | IC50 (NUAK1): 11 to 100 nM | IC50 (Aurora A): > 1000 nM

Reference: patent publication US20240025887A1, “THIENYL AND CYCLOALKYL AMINOPYRIMIDINE COMPOUNDS AS INHIBITORS OF NUAK KINASES, COMPOSITIONS AND USES THEREOF” (Ontario Institute for Cancer Research (OICR), priority 2021, published 2024)
